How the values were obtained:
[1] = target: T1, HLA-A*02:01 (Homo sapiens, UniProt P04439, D140Y/D185E/D98H/E176V/E277Q/G131W/G231S/I119V/I121R/I166T/I218V/L300P/L318F/N151K/N90K/P208A/P217A/Q86G/Q94H/R138H/R169H/T345S); experiment: Candidate in-place peptide exchange testing (loss of FITC signal, flow cytometry); assay type: binding; conditions: for exchange efficiency: FITC in-place peptide, 1 micromolar pHLA, 20 micromolar incoming peptide LMYAKRAFV, 10 mM GlyCha, room temperature, 4 hour; for suitability as in-place peptide (affinity and exchangeability): HLA-A*02:01, FIG. 29
Text: Candidate peptides with a FITC-modified Lysine at Position 4 or 5 shown in Table 6 were purchased from a peptide manufacturer (Genscript). The fluorescent peptides were loaded into recombinant, biotinylated HLA-A*02:01 by a contract manufacturer (Biolegend). […] The peptide-HLA (pHLA) concentration in the reactions was 1 micromolar. The incoming peptide concentration was 20 micromolar.
For the incoming peptide, the peptide sequence […] […] This may be used as a model for candidate antigenic peptides, which need to displace an in-place peptide stabilizing the MHC (e.g., loaded into the MHC complex), in methods of discovering antigenic peptides and methods of activating lymphocytes as described throughout the specification.
After four hours, exchanged, unexchanged and non-fluorescent biotinylated HLA complexes were loaded onto Streptavidin coated capture beads. The HLA complex coated beads were analyzed for FITC Fluorescence on a Flow Cytometer.

[2] = target: T1, HLA-A*02:01; experiment: Peptide switching on peptide-HLA-A*02:01 complex with DNP-labelled initial peptide (Example 21); assay type: binding
Procedure: To test binding of Immunogenic and Non-Immunogenic peptides to an MHC Class I complex, a peptide-HLA-A*02:01 complex with an initial peptide [sequence] […] The initial peptide included a dinitrophenyl (DNP) moiety conjugated to the lysine at position 5. Two peptide antigens were then tested for their ability to bind to the MHC Class I complex: [sequence] […] The peptides were resuspended in DMSO to 5 mg/mL. The peptides were then further diluted ten-fold in PBS. To set up 0.05 mL peptide switching reactions, 20 micromolar [sequence] […] In addition, a control peptide switching reaction using the peptide [sequence] […]
Samples of unswitched peptide-MHC and switched peptide-MHC were then captured on Streptavidin-coated DynaBeads (ThermoFisher). […] The peptide-MHC beads were then stored at 4° C. until they were analyzed for peptide exchange.
To quantify peptide exchange, a FITC-conjugated anti-DNP antibody specific for the DNP-conjugated initial peptide was added to a sample of each captured peptide-MHC. […] The staining for pre-assembled peptide and intact pHLA complexes were detected by Flow Cytometry on a FACSCelesta with High-Throughput Sampler (BD Biosciences). […] Approximately 5,000 bead events were recorded for each sample. The Median Fluorescence Intensity (MFI) in the APC and FITC channels of each sample was then recorded. […]

[3] = target: T1, HLA-A*02:01; experiment: Peptide binding and stability under culture conditions (Example 22); conditions: beads in T Cell Culture Media at 37° C.; W6/32 antibody MFI, exponential decay fit
Procedure: To assess the stability of the pMHC Class I-peptide antigen complexes under the conditions that are used to culture T Cells, pMHC Class I complexes were first bound to beads. Biotinylated HLA-A*02:01 complexes loaded with either […] (SEQ ID NO: 5) or […] (SEQ ID NO: 6) peptides were diluted to 0.83 micrograms/mL in Assay Buffer (PBS with 2 mM EDTA and 0.1% Bovine Serum Albumin). To 0.6 mL of the pMHC solutions in microcentrifuge tubes, […] Streptavidin-coated DynaBeads (M-280, ThermoFisher) were added. The beads were mixed in the pMHC solution for 4 minutes at 2,000 rpm on a ThermoMixer (Eppendorf). The pMHC-beads were then captured on a magnetic rack, and the solution containing unbound pMHC removed by aspiration. 1 mL of Assay Buffer was added to the tubes, and then aspirated. The beads were then resuspended in 0.1 mL of Assay Buffer. The beads were then stored at 4° C. until use. […]
Antibody binding to the beads was then detected on a FACSCelesta with High-Throughput Sampler (BD Biosciences). […] Approximately 25,000 bead events were recorded for each sample. The Median Fluorescence Intensity (MFI) in the APC channel for the pHLA-beads in each sample was then recorded. […] The half-lives for the pHLA complexes were then calculated from the fitted decay constant.

FLAIKKLYVG
exchange efficiency [1]: about 0.65

GAATKMAAV
suitability as in-place peptide (affinity and exchangeability) [1]: most suitable in-place peptides

GMGQKDSYV [ACTB (P60709) 46-54]
exchange efficiency [1]: about 1.0 | suitability as in-place peptide (affinity and exchangeability) [1]: most suitable in-place peptides

LMYAKRAFV [TBA1A (Q71U36) 397-405; used as initial peptide and as incoming/displacing peptide]
exchange efficiency [1]: about 0.30

SLLPIMWQLY [Non-Immunogenic peptide antigen derived from TCL1] [listing 1 of 2 here]
percent peptide switching [2]: about 90%

SLLPIMWQLY [Non-Immunogenic peptide antigen derived from TCL1] [listing 2 of 2 here]
half-life of peptide-HLA-A*02:01 complex [3]: about 0.5 hours

SLYSYFQKV [Immunogenic peptide antigen derived from SLC45A2] [listing 1 of 2 here]
percent peptide switching [2]: about 99%

SLYSYFQKV [Immunogenic peptide antigen derived from SLC45A2] [listing 2 of 2 here]
half-life of peptide-HLA-A*02:01 complex [3]: about 17 hours

Reference: patent publication US20240272171A1, “Methods for Identification of Exchangeable MHC Binding Peptides and Methods of Use Thereof” (PhenomeX Inc., priority 2020, published 2024)
